Test results reported in paper PMC10638401, “Mannich-type modifications of (−)-cannabidiol and (−)-cannabigerol leading to new, bioactive derivatives” (Scientific Reports, 2023).
pEC50: −log10 of the molar value. Values after ≈ are worked out from the molar mass of the structure shown.

Key:
[1] = tested on: Staphylococcus epidermidis mecA; experiment: MIC, broth micro dilution; settings: Staphylococcus epidermidis
[2] = tested on: SARS-CoV-2; experiment: SARS-CoV-2 cytopathic effect (CPE) inhibition assay in Vero E6 cells (XTT); assay type: cell-based; settings: Severe acute respiratory syndrome coronavirus 2, Vero C1008, 72 h; Vero E6 cells, 3 days post-infection, XTT
Experimental: CBD and CBG derivatives were further tested for their ability to inhibit SARS-CoV-2 replication in Vero E6 cells. Initially, the inhibition of virus-induced cytopathic effect was measured by addition of twofold serial dilutions of each derivative to the cells, followed by the infection with SARS-CoV-2 and determination of the cell viability 3 days post-infection by XTT assay. Concurrently, the cytotoxicity of each compound was assessed from identical dilutions in uninfected Vero E6 cells. To confirm anti-SARS-CoV-2 activity in the CPE inhibition assay, selected compounds were tested in immunofluorescence assay, where inhibition of SARS-CoV-2 replication was monitored as reduction in nucleoprotein expression using fluorescence microscope. […] Among the CBG derivatives, we can find quite cytotoxic and non-cytotoxic derivatives as well.
For CPE-based assay, two-fold fold serial dilutions of compounds from 100 µM were added in triplicate in a 384-well plate with 5000 Vero E6 cells in DMEM medium with 2% FBS, 100 U of penicillin/ml and 100 µg of streptomycin/ml (all Merck). After 1 h incubation SARS-CoV-2 (strain hCoV-19/Czech Republic/NRL_6632_2/2020) was added at multiplicity of infection […]. Following three days incubation at 37 °C in 5% CO2 the cell viability was determined by addition of XTT solution (Sigma-Aldrich) for 4 h and the absorbance was measured using EnVision plate reader (Perkin Elmer). Drug concentrations required to reduce viral cytopathic effect by 50% (EC50) were calculated using nonlinear regression from plots of percentage cell viability versus log10 drug concentration using GraphPad Prism (version 9.0.0, GraphPad Software, LLC). For immunofluorescence assay, two-fold fold serial dilutions of compounds from 100 µM were added in triplicate in 96-well plate with 15,000 Vero E6 cells plated day before in the same medium as above. After 1 h incubation, SARS-CoV-2 was added at multiplicity of infection 0.05 IU/cell. After three days of incubation, cells were fixed with 4% paraformaldehyde, permeabilized with 0.2% Triton X100 (both Merck), washed, incubated with anti-SARS-CoV-2antibody (mouse monoclonal antibody detecting SARS-CoV-2 nucleoprotein) for 2 h at room temperature. Followed by 1.5 h incubation with Cy3-labeled donkey anti-mouse IgG (Jackson ImmunoResearch Europe) and documented using fluorescence microscope with camera (Olympus). Images were processed in ImageJ software (NIH) and compound concentrations required to reduce fluorescence by 50% (EC50s) were calculated from plots of percentage of fluorescent cells versus log10 drug concentration using nonlinear regression analysis as above. Cytotoxicity was evaluated by incubating with the same two-fold serial dilutions of each compound as above with Vero E6 cells in 384-well plate.

[3] = tested on: Enterococcus faecalis 51299 VanB; experiment: MIC, broth micro dilution; settings: Enterococcus faecalis, 51299VANB
Experimental: (§3) According to CLSI guideline the Minimal Inhibitory Concentrations (MICs) of the prepared compounds were determined with the broth micro dilution method. After an overnight growth on 5% bovine blood agar plates at 35 °C bacterial strains were suspended in physiological saline in order to reach the density of 0.5 McFarland for inoculation. Stock solutions containing different concentrations of the substances were prepared in DMSO and H2O (1:1). These were twofold serially diluted from 256 to 0.5 mg/l in Mueller–Hinton broth, and 100 ml of each dilution was inoculated with 10 ml of each bacterial suspension.

[4] = tested on: MSSA (Methicillin Sensitive Staphylococcus aureus); experiment: MIC, broth micro dilution; settings: Staphylococcus aureus
Experimental: as §3

[5] = tested on: Enterococcus faecalis 29 212; experiment: MIC, broth micro dilution; settings: Enterococcus faecalis, 29212
Experimental: as §3

[6] = tested on: multidrug-resistant Acinetobacter baumannii; experiment: Antibacterial effect, broth micro dilution
Experimental: as §3

[7] = tested on: Escherichia coli; experiment: Antibacterial effect, broth micro dilution; assay type: cell-based
[8] = tested on: Pseudomonas aeruginosa; experiment: Antibacterial effect, broth micro dilution; assay type: cell-based
[9] = in vitro; settings: African green monkey
[10] = tested on: Staphylococcus epidermidis biofilm forming; experiment: MIC, broth micro dilution; settings: Staphylococcus epidermidis
Experimental: as §3

[11] = tested on: MRSA (Methicillin Resistant Staphylococcus aureus); experiment: MIC, broth micro dilution; settings: Staphylococcus aureus
Experimental: as §3

[12] = tested on: Enterococcus faecalis 15 376 VanA; experiment: MIC, broth micro dilution; settings: Enterococcus faecalis, 15376VANA
[13] = tested on: SZ95 sebocytes; experiment: Viability MTT-assay on sebocytes, 48 h; assay type: cell-based, human; settings: 30 μM
Experimental: Human immortalized SZ95 sebocytes, originated from human facial sebaceous glands[50] were provided by prof. Christos C. Zouboulis, and were cultured in Sebomed® Basal Medium (Cat. No. F8205; Sigma-Aldrich) supplemented with 10% FBS (Gibco-Thermo Fisher Scientific), 1 mM CaCl2 (Cat. No. C7902; Sigma-Aldrich), 5 ng/ml human epidermal growth factor (Cat. No. E9644; Sigma-Aldrich), and MycoZap™ Plus-CL (1:500; Lonza). The medium was changed every other day, and cells were subcultured at 60–70% confluence.
The viability of HaCaT keratinocytes and SZ95 sebocytes was determined by MTT-assay[58] (Cat. No. M5655; Sigma-Aldrich) measuring the conversion of the tetrazolium salt to formazan by mitochondrial dehydrogenases. Cells were plated in 96-well plates (20,000 cells/well), and were treated as indicated. Cells were then incubated with 0.5 mg/ml MTT reagent for 3 h, and concentration of formazan crystals (as an indicator of number of viable cells) was determined colorimetrically at 565 nm by using FlexStation 3 multi-mode microplate reader (Molecular Devices). Results were expressed as percentage of vehicle-treated control regarded as 100%.

[14] = tested on: Klebsiella pneumoniae carbapenemase-producing bacteria; experiment: Antibacterial effect, broth micro dilution
[15] = tested on: A2780 cells; experiment: Antiproliferative MTT assay, 72 h; assay type: cell-based, human; settings: Homo sapiens, A2780, 30 μM, read-out: inhibition of the proliferation
From the text: (§1) Human adherent cancer cell lines A2780, MDA-MB-231 and MCF-7 were obtained from ECACC (European Collection of Cell Cultures, Salisbury, UK; Cat. No.93112519, 92020424, 86012803, respectively). SiHa cell line was obtained from ATCC (American Tissue Culture Collection, Manassas, Virginia, USA; Cat. No. HTB-35). All cell lines used for antiproliferative assay were maintained in Eagle's Minimum Essential Medium (EMEM) completed with 10% fetal bovine serum (FBS), 1% non-essential amino acid solution, and 1% penicillin, streptomycin, and amphotericin B mixture under cell culture conditions described before. All the utilized media and supplements were purchased from Lonza Group Ltd. (Basel, Switzerland).
(§2) The antiproliferative actions of the prepared molecules were determined by the same assay against a panel of adherent human cancer cell lines containing cervical (SiHa), ovarian (A2780) and breast (MCF7, MDA-MB-231) cell lines. Cells were plated onto 96-well microplates (5000 cells/well) and after an overnight incubation treated with two concentrations (10 or 30 μM) of the test substances for 72 h under cell culture conditions. Subsequently, MTT (5 mg/ml in phosphate buffer) was added to the wells, followed by incubation for 4 h. The supernatant was removed, the formazan crystals were then dissolved in 100 µl DMSO. Finally, absorbance values were determined by a microplate reader (BMG Labtech, Ortenberg, Germany) at 545 nm. Two independent measurements were performed with five parallel wells. Results were expressed as percentage of cell proliferation inhibition compared to non-treated control samples regarded as 0%.

[16] = tested on: MCF7 cells; experiment: Antiproliferative MTT assay, 72 h; assay type: cell-based, human; settings: Homo sapiens, MCF7, 30 μM, read-out: inhibition of the proliferation
From the text: as §1, §2

[17] = tested on: Bacillus subtilis; experiment: MIC, broth micro dilution
Experimental: as §3

SMILES: CCCCCc1cc(O)c(C/C=C(\C)CCC=C(C)C)c(O)c1 [Compound 2, (−)-cannabigerol]
- MIC [1]: 8 µg/mL (≈ 25.3 µM)
- pEC50 [2]: < 4.96
- MIC [3]: 4 µg/mL (≈ 12.6 µM)
- MIC [4]: 4 µg/mL (≈ 12.6 µM)
- MIC [5]: 4 µg/mL (≈ 12.6 µM)
- antibacterial effect (no effect up to) [6]: > 256 µg/mL
- antibacterial effect (no effect up to) [7]: > 256 µg/mL
- antibacterial effect (no effect up to) [8]: > 256 µg/mL
- CC50 [9]: ~11 µM
- MIC [10]: 8 µg/mL (≈ 25.3 µM)
- MIC [11]: 4 µg/mL (≈ 12.6 µM)
- MIC [12]: 4 µg/mL (≈ 12.6 µM)
- viability (MTT signal intensity) [13]: tended to suppress viability
- antibacterial effect (no effect up to) [14]: > 256 µg/mL
- inhibition at 30 µM [15]: > 90%
- inhibition at 30 µM [16]: > 90%
- MIC [17]: 2 µg/mL (≈ 6.32 µM)
